According to patent US12473303B2, “4-[[(7-aminopyrazolo[1,5-a]pyrimidin-5-yl)amino methyl]piperidin-3-ol compounds and their therapeutic use” (CARRICK THERAPEUTICS LIMITED, priority 2019, dated 2025):
Entries after “also recorded” stand apart in the source; their conditions may differ. Read-outs that look alike come from different tables or passages of the source.

Legend:
Cyclin K [1] = system: Cyclin K; parameters: key to Cyclin K Degrader Activity: −: No Cyclin K degradation.; +: Weak Cyclin K degradation.; ++: Moderate Cyclin K degradation.; +++: Strong Cyclin K degradation; conditions: cited from earlier work; for Cyclin K degradation (in words): literature
Cyclin K [2] = experiment: Western blotting analysis of Cyclin K depletion in cell culture; assay type: cell-based; conditions: A673 cells; for Cyclin K Degrader Activity: Table 2, 1 μM compound, 2 hours
Protocol: Western Blotting Analysis of Cyclin K Depletion in Cell Culture A673 cells were incubated for 2 hours with of 1 μM compound in presence or in absence of 10 μM proteasome inhibitor MG132 (Sigma Aldrich) or NAE (NEDD8 activating enzyme) inhibitor […] (Cell Signalling Technologies). Cells were washed 2× with cold Phosphate Buffered Saline (PBS, Sigma Aldrich), followed by the addition of lysis buffer for 15 minutes on ice before harvesting and centrifugation.
Protein content in the cell lysate was assessed by BCA assay (Thermo Fisher). Samples were then prepared with 4× Laemmlli Buffer (Bio-Rad) and heated to 95° C. for 5 minutes. Each sample was loaded onto a Mini-PROTEAN TGX Stain Free Gel (Bio-Rad) at 50 μg protein/well. SDS-PAGE was performed and then protein was transferred onto a PVDF membrane using a Trans-Blot® Turbo™ Midi PVDF Transfer Pack (Bio-Rad. Membranes were blocked in TBS-T (Invitrogen), 5% (w/v) milk powder (Marvel) overnight at 4° C.
Membranes were incubated with anti-CCNK antibody (rabbit) primary antibody (Abcam) and anti-GAPDH antibody (rabbit) in TBS-T for 2 hours. Membranes were then washed three times with TBS-T, before incubation secondary goat anti-rabbit HRP antibody (Cell Signalling Technologies) followed by 3× washing in TBS-T. Blots were imaged using a Chemidoc imager (Bio-Rad). Cyclin K depletion was measured as the observable drop in band intensity in compound treated samples relative to proteasome-inhibitor treated samples, measured by densitometry (Image Lab).

Human CDK7/CycH/MAT1 = Human CDK7/CycH/MAT1 (Homo sapiens (Human), UniProt P50613); experiment: Radiometric protein kinase assay (33PanQinase Activity Assay), CDK7; assay type: biochemical; conditions: Table 1; ATP 3 μM
Chain of Human CDK7/CycH/MAT1 (P50613 whole entry): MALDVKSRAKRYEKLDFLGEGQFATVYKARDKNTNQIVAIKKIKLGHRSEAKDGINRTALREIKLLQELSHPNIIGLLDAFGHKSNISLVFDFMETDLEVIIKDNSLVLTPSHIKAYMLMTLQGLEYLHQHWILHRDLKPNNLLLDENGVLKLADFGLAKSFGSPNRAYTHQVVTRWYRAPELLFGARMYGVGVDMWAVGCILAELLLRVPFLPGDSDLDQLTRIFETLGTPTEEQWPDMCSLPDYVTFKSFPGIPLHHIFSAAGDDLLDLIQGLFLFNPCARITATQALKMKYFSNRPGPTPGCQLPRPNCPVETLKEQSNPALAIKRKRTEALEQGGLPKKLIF
Chain of Human CDK7/CycH/MAT1 (P51946 whole entry partner): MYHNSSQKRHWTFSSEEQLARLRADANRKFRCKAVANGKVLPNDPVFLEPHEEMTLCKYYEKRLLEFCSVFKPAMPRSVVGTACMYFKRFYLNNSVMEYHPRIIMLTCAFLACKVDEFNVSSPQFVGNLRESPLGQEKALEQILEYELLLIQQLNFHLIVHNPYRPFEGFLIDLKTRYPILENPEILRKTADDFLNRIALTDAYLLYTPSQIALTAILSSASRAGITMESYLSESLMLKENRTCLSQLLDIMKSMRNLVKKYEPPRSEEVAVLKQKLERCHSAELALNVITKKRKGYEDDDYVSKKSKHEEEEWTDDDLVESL
Chain of Human CDK7/CycH/MAT1 (P51948 whole entry partner): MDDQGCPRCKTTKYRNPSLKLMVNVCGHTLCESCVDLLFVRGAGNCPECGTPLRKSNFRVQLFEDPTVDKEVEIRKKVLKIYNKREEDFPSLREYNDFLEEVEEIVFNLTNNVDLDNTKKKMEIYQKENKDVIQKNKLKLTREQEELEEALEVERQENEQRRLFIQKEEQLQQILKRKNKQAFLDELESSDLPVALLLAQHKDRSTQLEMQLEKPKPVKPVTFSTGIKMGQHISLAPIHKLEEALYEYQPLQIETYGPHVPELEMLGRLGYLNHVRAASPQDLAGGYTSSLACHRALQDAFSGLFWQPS
Protocol: (§1) A radiometric protein kinase assay (^33PanQinase® Activity Assay) was used for measuring the kinase activity of the two protein kinases (CDK12/CDK7). All kinase assays were performed in 96-well FlashPlates™ from PerkinElmer (Boston, MA, USA) in a 50 μL reaction volume.
(§2) The reaction cocktail was pipetted in four steps in the following order: • 20 μL of assay buffer (standard buffer) • 5 μL of ATP solution (in H2O) • 5 μL of test compound (in 10% DMSO) • 10 μL of substrate/10 μL of enzyme solution (premixed)
(§3) The reaction mixture was incubated at 30° C. for 60 min and then stopped by the addition of 2% (v/v) H3PO4. Plates were aspirated and washed two times with 200 μL 0.9% (w/v) NaCl. Incorporation of ^33Pi was determined with a microplate scintillation count (Microbeta, Wallac).
(§4) The fitting method used was a least-squares fit.

A673 cells = experiment: Cellular potency in A673 cells; assay type: cell-based; conditions: for IC50: Homo sapiens, A673 cells
Human CDK12 wt/CycK = Human CDK12 wt/CycK (Homo sapiens (Human), UniProt Q9NYV4); experiment: Radiometric protein kinase assay (33PanQinase Activity Assay), CDK12; assay type: biochemical; conditions: for CDK7/CDK12: ratio greater than 1 indicated selectivity for CDK12
Chain of Human CDK12 wt/CycK (Q9NYV4 whole entry): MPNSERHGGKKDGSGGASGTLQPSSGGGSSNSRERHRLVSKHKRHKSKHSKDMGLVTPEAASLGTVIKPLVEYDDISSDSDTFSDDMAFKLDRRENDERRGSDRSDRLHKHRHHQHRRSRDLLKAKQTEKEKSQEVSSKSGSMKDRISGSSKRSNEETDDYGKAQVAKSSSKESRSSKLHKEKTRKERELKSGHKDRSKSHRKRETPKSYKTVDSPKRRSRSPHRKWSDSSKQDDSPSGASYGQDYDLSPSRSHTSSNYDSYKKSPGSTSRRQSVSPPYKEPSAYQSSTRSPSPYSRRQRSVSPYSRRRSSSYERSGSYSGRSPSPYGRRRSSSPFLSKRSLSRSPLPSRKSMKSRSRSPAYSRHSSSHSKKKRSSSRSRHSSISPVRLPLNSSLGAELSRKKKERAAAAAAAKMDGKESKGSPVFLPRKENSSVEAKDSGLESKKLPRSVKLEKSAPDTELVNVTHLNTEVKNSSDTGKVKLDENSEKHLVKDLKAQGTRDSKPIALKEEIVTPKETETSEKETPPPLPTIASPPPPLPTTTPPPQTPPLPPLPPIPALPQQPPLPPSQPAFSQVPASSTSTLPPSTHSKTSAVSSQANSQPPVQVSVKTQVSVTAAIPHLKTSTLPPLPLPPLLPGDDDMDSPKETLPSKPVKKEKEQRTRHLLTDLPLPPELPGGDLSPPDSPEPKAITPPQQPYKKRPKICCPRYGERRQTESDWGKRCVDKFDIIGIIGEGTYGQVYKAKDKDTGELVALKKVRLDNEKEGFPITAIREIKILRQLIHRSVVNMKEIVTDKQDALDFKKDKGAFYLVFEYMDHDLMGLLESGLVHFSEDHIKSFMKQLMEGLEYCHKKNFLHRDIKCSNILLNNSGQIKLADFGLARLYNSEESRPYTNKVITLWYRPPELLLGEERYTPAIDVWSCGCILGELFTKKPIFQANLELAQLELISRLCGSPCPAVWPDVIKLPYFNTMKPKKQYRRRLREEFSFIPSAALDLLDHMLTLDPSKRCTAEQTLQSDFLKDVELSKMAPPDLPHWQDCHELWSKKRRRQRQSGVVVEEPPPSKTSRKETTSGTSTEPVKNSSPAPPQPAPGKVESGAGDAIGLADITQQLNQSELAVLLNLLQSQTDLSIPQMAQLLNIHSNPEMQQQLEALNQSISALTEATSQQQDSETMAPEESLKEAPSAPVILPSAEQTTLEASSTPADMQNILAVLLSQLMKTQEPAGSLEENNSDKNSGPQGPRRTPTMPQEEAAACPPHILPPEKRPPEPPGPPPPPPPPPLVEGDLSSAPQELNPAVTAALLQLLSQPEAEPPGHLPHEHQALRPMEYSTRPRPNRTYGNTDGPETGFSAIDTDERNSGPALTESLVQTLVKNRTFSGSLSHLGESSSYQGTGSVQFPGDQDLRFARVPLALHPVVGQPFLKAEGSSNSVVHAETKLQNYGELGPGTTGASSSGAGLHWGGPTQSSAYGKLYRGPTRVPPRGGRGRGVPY
Chain of Human CDK12 wt/CycK (O75909 whole entry partner): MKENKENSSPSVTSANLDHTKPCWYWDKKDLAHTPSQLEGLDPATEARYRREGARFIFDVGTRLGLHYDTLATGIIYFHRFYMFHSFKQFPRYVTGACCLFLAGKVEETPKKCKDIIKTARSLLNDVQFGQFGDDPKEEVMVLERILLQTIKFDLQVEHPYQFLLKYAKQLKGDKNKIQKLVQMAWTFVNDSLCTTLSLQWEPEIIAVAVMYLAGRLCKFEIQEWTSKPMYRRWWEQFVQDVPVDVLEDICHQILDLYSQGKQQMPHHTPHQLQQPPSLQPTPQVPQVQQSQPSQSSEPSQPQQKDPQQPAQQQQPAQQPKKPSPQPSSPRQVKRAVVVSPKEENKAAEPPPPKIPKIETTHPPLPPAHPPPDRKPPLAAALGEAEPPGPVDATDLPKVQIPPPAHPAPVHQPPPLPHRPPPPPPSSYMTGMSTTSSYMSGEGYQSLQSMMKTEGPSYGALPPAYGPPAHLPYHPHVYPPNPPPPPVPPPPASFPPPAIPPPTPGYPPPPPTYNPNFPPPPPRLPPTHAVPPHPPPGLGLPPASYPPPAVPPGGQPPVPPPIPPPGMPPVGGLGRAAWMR
Protocol: as §1, §2, §3, §4

HeLa and A549 cells = conditions: Table 2, cited from earlier work
[3] = Table 3, ratio >0.9 is an indicator of Cyclin K degradation
[4] = Table 1, ATP 0.3 μM, read-out: CDK12 IC50
[5] = Table 2, CDK12 kinase activity, read-out: Biochemical Potency IC50
[6] = Table 3, CDK12 kinase activity, read-out: Biochemical Potency IC50

SMILES	IC50 (Human CDK7/CycH/MAT1) [nM]	IC50 (A673 cells; A673, Table 2) [nM]	IC50 (A673 cells; A673, Table 3) [nM]	IC50 (Human CDK12 wt/CycK; [4]) [nM]	CDK7/CDK12 (Human CDK12 wt/CycK; Table 1)	IC50 (Human CDK12 wt/CycK; [5]) [nM]	IC50 (Human CDK12 wt/CycK; [6]) [nM]	Cyclin K degradation (in words) (Cyclin K [1])	Cyclin K degradation (in words) (Cyclin K [2])	Cyclin K Degrader Activity (Cyclin K [2])	Ratio of Biochemical Potency: Cellular Potency (A673 cells; Table 2)	Ratio of Biochemical Potency: Cellular Potency (A673 cells; [3])	Cyclin K Degrader Activity (Cyclin K [1]; Table 2, derived from published data in HeLa and A549 cells)	IC50 (HeLa and A549 cells; derived from published data in HeLa and A549 cells, read-out: Cellular Potency IC50) [nM]	Ratio of Biochemical Potency: Cellular Potency (HeLa and A549 cells; derived from published data)
CC[C@H](CO)Nc1nc(NCc2ccc(-c3ccccn3)cc2)c2ncn(C(C)C)c2n1 [CR8]								cause Cyclin K degradation							
CCc1cnn2c(NCc3ccc[n+]([O-])c3)cc(N3CCCC[C@H]3CCO)nc12 [Dinaciclib, reference compound]									not cyclin K degraders	−					
Cc1cccn2cc(CNc3cc(NC[C@H]4CCNC[C@@H]4O)nc4c(C(C)C)cnn34)nc12 [H-APPAMP-004, (3R,4R)-4-(((3-isopropyl-7-(((8-methylimidazo[1,2-a]pyridin-2-yl)methyl)amino)pyrazolo[1,5-a]pyrimidin-5-yl)amino)methyl)piperidin-3-ol]	305	8.9	12	51.7	5.90	55	51			++	6.2	4.2			
Cn1c(CNc2cc(NC[C@H]3CCNC[C@@H]3O)nc3c(C4CC4)cnn23)nc2cc(F)c(F)cc21 [H-APPAMP-036, (3R,4R)-4-(((3-cyclopropyl-7-(((5,6-difluoro-1-methyl-1H-benzo[d]imidazol-2-yl)methyl)amino)pyrazolo[1,5-a]pyrimidin-5-yl)amino)methyl)piperidin-3-ol]	1150		10.4	287	4.0		287					28			
CC(C)Oc1cccc2nc(CNc3cc(NC[C@H]4CCNC[C@@H]4O)nc4c(C5CC5)cnn34)cn12 [H-APPAMP-041, (3R,4R)-4-(((3-cyclopropyl-7-(((5-isopropoxyimidazo[1,2-a]pyridin-2-yl)methyl)amino)pyrazolo[1,5-a]pyrimidin-5-yl)amino)methyl)piperidin-3-ol]	650		9.8	46	14.1		46					4.7			
Cc1cc(C)n2cc(CNc3cc(NC[C@H]4CCNC[C@@H]4O)nc4c(C(C)C)cnn34)nc2n1 [H-APPAMP-043, (3R,4R)-4-(((7-(((5,7-dimethylimidazo[1,2-a]pyrimidin-2-yl)methyl)amino)-3-isopropylpyrazolo[1.5-a]pyrimidin-5-yl)amino)methyl)piperidin-3-ol]	484	340	340	21	23	21	21			−	0.06	0.06			
CC(C)c1cnn2c(NCc3nc4cc(C5CC5)ccn4n3)cc(NC[C@H]3CCNC[C@@H]3O)nc12 [H-APPAMP-044, (3R,4R)-4-(((7-(((7-cyclopropyl-[1,2,4]triazolo[1,5-a]pyridin-2-yl)methyl)amino)-3-isopropylpyrazolo[1,5-a]pyrimidin-5-yl)amino)methyl)piperidin-3-ol]	269	44	44	40	6.7	40	40			+	0.91	0.91			
CN(C)C/C=C/C(=O)Nc1ccc(C(=O)N2CCC[C@@H](Nc3ncc(Cl)c(-c4c[nH]c5ccccc45)n3)C2)cc1 [THZ-531]								not cyclin K degraders; also recorded: did not cause cyclin K degradation					−	210	0.74

More lines, main results first:

IC50 (Human CDK7/CycH/MAT1) [nM]	IC50 (A673 cells; A673, Table 2) [nM]	IC50 (A673 cells; A673, Table 3) [nM]	IC50 (Human CDK12 wt/CycK; [4]) [nM]	CDK7/CDK12 (Human CDK12 wt/CycK; Table 1)	IC50 (Human CDK12 wt/CycK; [5]) [nM]	IC50 (Human CDK12 wt/CycK; [6]) [nM]	SMILES	Cyclin K degradation (in words) (Cyclin K [1])	Cyclin K degradation (in words) (Cyclin K [2])	Cyclin K Degrader Activity (Cyclin K [2])	Ratio of Biochemical Potency: Cellular Potency (A673 cells; Table 2)	Ratio of Biochemical Potency: Cellular Potency (A673 cells; [3])	Cyclin K Degrader Activity (Cyclin K [1]; Table 2, derived from published data in HeLa and A549 cells)	IC50 (HeLa and A549 cells; derived from published data in HeLa and A549 cells, read-out: Cellular Potency IC50) [nM]	Ratio of Biochemical Potency: Cellular Potency (HeLa and A549 cells; derived from published data)
334	1.5	1.5	36	9.3	36	36	Cc1cccc2nc(CNc3cc(NC[C@H]4CCNC[C@@H]4O)nc4c(C5CC5)cnn34)cn12 [H-APPAMP-025, (3R,4R)-4-(((3-cyclopropyl-7-(((5-methylimidazo[1,2-a]pyridin-2-yl)methyl)amino)pyrazolo[1,5-a]pyrimidin-5-yl)amino)methyl)piperidin-3-ol]			+++	23	23			
649		18.1	208	3.1		208	O[C@H]1CNCC[C@@H]1CNc1cc(NCc2cn3c(C(F)(F)F)cccc3n2)n2ncc(C3CC3)c2n1 [H-APPAMP-037, (3R,4R)-4-(((3-cyclopropyl-7-(((5-(trifluoromethyl)imidazo[1,2-a]pyridin-2-yl)methyl)amino)pyrazolo[1,5-a]pyrimidin-5-yl)amino)methyl)piperidin-3-ol]					11			
762		4.6	100	7.6		100	CCc1cnn2c(NCc3cn4cc(C5CC5)cc(C(F)(F)F)c4n3)cc(NC[C@H]3CCNC[C@@H]3O)nc12 [H-APPAMP-038, (3R,4R)-4-(((7-(((6-cyclopropyl-8-(trifluoromethyl)imidazo[1,2-a]pyridin-2-yl)methyl)amino)-3-ethylpyrazolo[1,5-a]pyrimidin-5-yl)amino)methyl)piperidin-3-ol]					22			
1830		4	48	38.1		48	Cc1cc(C(F)(F)F)cc2nc(CNc3cc(NC[C@H]4CCNC[C@@H]4O)nc4c(C5CC5)cnn34)cn12 [H-APPAMP-039, (3R,4R)-4-(((3-cyclopropyl-7-(((5-methyl-7-(trifluoromethyl)imidazo[1,2-a]pyridin-2-yl)methyl)amino)pyrazolo[1,5-a]pyrimidin-5-yl)amino)methyl)piperidin-3-ol]					12			
1530		5.4	48	31.9		48	Cc1cn2cc(CNc3cc(NC[C@H]4CCNC[C@@H]4O)nc4c(C5CC5)cnn34)nc2cc1C(F)(F)F [H-APPAMP-040, (3R,4R)-4-(((3-cyclopropyl-7-(((6-methyl-7-(trifluoromethyl)imidazo[1,2-a]pyridin-2-yl)methyl)amino)pyrazolo[1,5-a]pyrimidin-5-yl)amino)methyl)piperidin-3-ol]					8.9			
974		30	100	9.7		100	O[C@H]1CNCC[C@@H]1CNc1cc(NCc2cn3cc(C4CC4)cc(C(F)(F)F)c3n2)n2ncc(C3CC3)c2n1 [H-APPAMP-042, (3R,4R)-4-(((3-cyclopropyl-7-(((6-cyclopropyl-8-(trifluoromethyl)imidazo[1,2-a]pyridin-2-yl)methyl)amino)pyrazolo[1,5-a]pyrimidin-5-yl)amino)methyl)piperidin-3-ol]					3.3			
496	110	110	18	27.6	18	18	O[C@H]1CNCC[C@@H]1CNc1cc(NCc2cn3ccc(-c4ccccc4)cc3n2)n2ncc(C3CC3)c2n1 [H-APPAMP-045, (3R,4R)-4-(((3-cyclopropyl-7-(((7-phenylimidazo[1,2-a]pyridin-2-yl)methyl)amino)pyrazolo[1,5-a]pyrimidin-5-yl)amino)methyl)piperidin-3-ol]			−	0.16	0.16			
